The IC50 is the concentration that inhibits the measured activity by half. Read a high IC50 as lower potency.

Structures are written as SMILES.

For this experiment, the target named is GCN2 (Homo sapiens, UniProt Q9P2K8). The experiment can be described thus: TR-FRET biochemical assay for inhibition of GCN2 (Example 106, for Example 1-4BB). Particulars: Table 8. For orientation: TR-FRET usually uses a lanthanide donor and a delayed reading to cut background.
Sequence of GCN2 (Q9P2K8 whole entry): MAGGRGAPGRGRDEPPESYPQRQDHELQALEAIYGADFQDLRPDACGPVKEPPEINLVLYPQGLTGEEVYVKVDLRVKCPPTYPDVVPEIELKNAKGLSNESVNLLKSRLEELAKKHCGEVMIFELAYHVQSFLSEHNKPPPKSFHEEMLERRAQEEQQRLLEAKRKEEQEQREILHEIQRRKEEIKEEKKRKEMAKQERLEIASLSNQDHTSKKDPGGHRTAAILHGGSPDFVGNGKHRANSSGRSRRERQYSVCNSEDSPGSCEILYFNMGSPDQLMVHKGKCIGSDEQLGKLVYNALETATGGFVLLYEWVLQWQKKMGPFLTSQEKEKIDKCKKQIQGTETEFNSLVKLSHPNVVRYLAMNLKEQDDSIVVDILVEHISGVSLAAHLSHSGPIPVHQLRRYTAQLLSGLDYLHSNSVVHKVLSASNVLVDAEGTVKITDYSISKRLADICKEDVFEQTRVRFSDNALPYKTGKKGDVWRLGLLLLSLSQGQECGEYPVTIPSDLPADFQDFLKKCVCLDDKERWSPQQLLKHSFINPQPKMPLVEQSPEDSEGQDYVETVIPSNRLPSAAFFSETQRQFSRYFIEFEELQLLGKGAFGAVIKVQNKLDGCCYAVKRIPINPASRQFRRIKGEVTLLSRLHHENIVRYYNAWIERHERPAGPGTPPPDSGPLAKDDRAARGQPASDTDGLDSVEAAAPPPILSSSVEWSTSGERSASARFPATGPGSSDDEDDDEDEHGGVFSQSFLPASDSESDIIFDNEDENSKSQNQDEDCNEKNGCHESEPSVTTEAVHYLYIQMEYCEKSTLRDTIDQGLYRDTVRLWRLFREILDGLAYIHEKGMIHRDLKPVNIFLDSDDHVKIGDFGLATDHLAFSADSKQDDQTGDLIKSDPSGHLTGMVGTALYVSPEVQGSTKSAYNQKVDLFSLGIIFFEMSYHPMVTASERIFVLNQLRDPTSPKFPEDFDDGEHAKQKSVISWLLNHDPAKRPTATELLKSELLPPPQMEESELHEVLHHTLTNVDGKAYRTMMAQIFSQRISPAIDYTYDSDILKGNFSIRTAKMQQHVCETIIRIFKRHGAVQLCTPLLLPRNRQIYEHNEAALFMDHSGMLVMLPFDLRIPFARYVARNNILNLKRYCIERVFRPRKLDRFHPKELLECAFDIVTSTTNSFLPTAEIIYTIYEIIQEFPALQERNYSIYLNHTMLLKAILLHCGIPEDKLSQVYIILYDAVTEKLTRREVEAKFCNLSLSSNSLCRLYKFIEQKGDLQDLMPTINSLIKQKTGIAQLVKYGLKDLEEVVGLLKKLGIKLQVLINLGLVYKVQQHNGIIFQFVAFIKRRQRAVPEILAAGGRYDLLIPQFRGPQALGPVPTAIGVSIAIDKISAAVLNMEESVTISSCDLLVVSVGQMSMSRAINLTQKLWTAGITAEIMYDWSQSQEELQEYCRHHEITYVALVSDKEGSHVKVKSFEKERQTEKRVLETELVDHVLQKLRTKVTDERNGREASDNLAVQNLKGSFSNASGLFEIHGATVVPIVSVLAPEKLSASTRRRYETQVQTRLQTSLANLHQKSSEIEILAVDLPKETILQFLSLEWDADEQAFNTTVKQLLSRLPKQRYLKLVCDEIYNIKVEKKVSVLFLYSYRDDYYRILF
`COC(=O)c1ccc(Cl)cc1S(=O)(=O)Nc1ccc(F)c(-c2ccc3c(-c4ncc[nH]4)n[nH]c3c2F)c1F` [Example 2BC, methyl 4-chloro-2-(N-(2,4-difluoro-3-(7-fluoro-3-(1H-imidazol-2-yl)-1H-indazol-6-yl)phenyl)sulfamoyl)benzoate]: the IC50 was < 500 nM.

`O=S(=O)(Nc1ccc(F)c(-c2ccc3c(-c4ncc[nH]4)n[nH]c3c2F)c1F)c1cc(Cl)ccc1F` [Example 2BD, 5-chloro-N-(2,4-difluoro-3-(7-fluoro-3-(1H-imidazol-2-yl)-1H-indazol-6-yl)phenyl)-2-fluorobenzenesulfonamide]: the IC50 is < 500 nM.

Turning to `COc1ccccc1S(=O)(=O)Nc1ccc(F)c(-c2ccc3c(-c4ncc[nH]4)n[nH]c3c2F)c1F` [Example 2BF, N-(2,4-difluoro-3-(7-fIuoro-3-(1H-imidazol-2-yl)-1H-indazol-6-yl)phenyl)-2-methoxybenzenesulfonamide], the IC50 is 500 to 2500 nM.

As for `O=S(=O)(Nc1ccc(F)c(-c2ccc3c(-c4ncc[nH]4)n[nH]c3c2F)c1F)c1c(F)cccc1F` [Example 2BG, N-(2,4-difluoro-3-(7-fluoro-3-(1H-imidazol-2-yl)-1H-indazol-6-yl)phenyl)-2,6-difluorobenzenesulfonamide], the IC50 was < 500 nM.

For the molecule `O=S(=O)(Nc1ccc(F)c(-c2ccc3c(-c4ncc[nH]4)n[nH]c3c2F)c1F)c1cc(F)ccc1F` [Example 2BH, N-(2,4-difluoro-3-(7-fluoro-3-(1H-imidazol-2-yl)-1H-indazol-6-yl)phenyl)-2,5-difluorobenzenesulfonamide], the IC50 was < 500 nM.

Consider `Cc1ccc(C)c(S(=O)(=O)Nc2ccc(F)c(-c3ccc4c(-c5ncc[nH]5)n[nH]c4c3F)c2F)c1` [Example 2BI, N-(2,4-difluoro-3-(7-fluoro-3-(1H-imidazol-2-yl)-1H-indazol-6-yl)phenyl)-2,5-dimethylbenzenesulfonamide], for which the IC50 is < 500 nM.

Consider `Cc1ccc(F)cc1S(=O)(=O)Nc1ccc(F)c(-c2ccc3c(-c4ncc[nH]4)n[nH]c3c2F)c1F` [Example 2BJ, N-(2,4-difluoro-3-(7-fluoro-3-(1H-imidazol-2-yl)-1H-indazol-6-yl)phenyl)-5-fluoro-2-methylbenzenesulfonamide], for which the IC50 was < 500 nM.

On to `N#Cc1ccccc1S(=O)(=O)Nc1ccc(F)c(-c2ccc3c(-c4ncc[nH]4)n[nH]c3c2F)c1F` [Example 2BK, 2-cyano-N-(2,4-difluoro-3-(7-fluoro-3-(1H-imidazol-2-yl)-1H-indazol-6-yl)phenyl)-benzenesulfonamide], for which the IC50 was < 500 nM.

As for `O=S(=O)(Nc1ccc(F)c(-c2ccc3c(-c4ncc[nH]4)n[nH]c3c2F)c1F)c1cccc(Cl)c1Cl` [Example 2BL, 2,3-dichloro-N-(2,4-difluoro-3-(7-fluoro-3-(1H-imidazol-2-yl)-1H-indazol-6-yl)phenyl)-benzenesulfonamide], the IC50 is < 500 nM.

On to `O=S(=O)(Nc1ccc(F)c(-c2ccc3c(-c4ncc[nH]4)n[nH]c3c2F)c1F)c1cccnc1Cl` [Example 2BM, 2-chloro-N-(2,4-difluoro-3-(7-fluoro-3-(1H-imidazol-2-yl)-1H-indazol-6-yl)phenyl)-pyridine-3-sulfonamide], for which the IC50 is < 500 nM.

In the case of `O=S(=O)(Nc1ccc(F)c(-c2ccc3c(-c4ncc[nH]4)n[nH]c3c2F)c1F)c1ccc(Cl)cc1Cl` [Example 2BN, 2,4-dichloro-N-(2,4-difluoro-3-(7-fluoro-3-(1H-imidazol-2-yl)-1H-indazol-6-yl)phenyl)-benzenesulfonamide], the IC50 was < 500 nM.

In turn, `O=S(=O)(Nc1ccc(F)c(-c2ccc3c(-c4ncc[nH]4)n[nH]c3c2F)c1F)c1ccc(F)c(F)c1` [Example 2BO, N-(2,4-difluoro-3-(7-fluoro-3-(1H-imidazol-2-yl)-1H-indazol-6-yl)phenyl)-3,4-difluorobenzenesulfonamide] came in with an IC50 of 500 to 2500 nM.

As to `O=S(=O)(Nc1ccc(F)c(-c2ccc3c(-c4ncc[nH]4)n[nH]c3c2F)c1F)c1ccccc1Cl` [Example 2BP, 2-chloro-N-(2,4-difluoro-3-(7-fluoro-3-(1H-imidazol-2-yl)-1H-indazol-6-yl)phenyl)-benzenesulfonamide], the IC50 is < 500 nM.

In the case of `N#Cc1cccc(S(=O)(=O)Nc2ccc(F)c(-c3ccc4c(-c5ncc[nH]5)n[nH]c4c3F)c2F)c1` [Example 2BQ, 3-cyano-N-(2,4-difluoro-3-(7-fluoro-3-(1H-imidazol-2-yl)-1H-indazol-6-yl)phenyl)-benzenesulfonamide], the IC50 was < 500 nM.

As for `Cc1ccccc1S(=O)(=O)Nc1ccc(F)c(-c2ccc3c(-c4ncc[nH]4)n[nH]c3c2F)c1F` [Example 2BR, N-(2,4-difluoro-3-(7-fluoro-3-(1H-imidazol-2-yl)-1H-indazol-6-yl)phenyl)-2-methylbenzenesulfonamide], the IC50 is < 500 nM.

On to `O=S(=O)(Nc1ccc(F)c(-c2ccc3c(-c4ncc[nH]4)n[nH]c3c2F)c1F)c1ccc(F)cc1Cl` [Example 2BS], for which the IC50 is < 500 nM.

Turning to `O=S(=O)(Nc1ccc(F)c(-c2ccc3c(-c4ncc[nH]4)n[nH]c3c2F)c1F)c1ccccc1F` [Example 2BT, N-(2,4-difluoro-3-(7-fluoro-3-(1H-imidazol-2-yl)-1H-indazol-6-yl)phenyl)-2-fluorobenzenesulfonamide], the IC50 is < 500 nM.

In the case of `Cc1nn(C(F)F)cc1S(=O)(=O)Nc1ccc(F)c(-c2ccc3c(-c4ncc[nH]4)n[nH]c3c2F)c1F` [Example 2BU, N-(2,4-difluoro-3-(7-fluoro-3-(1H-imidazol-2-yl)-1H-indazol-6-yl)phenyl)-1-(difluoromethyl)-3-methyl-1H-pyrazole-4-sulfonamide], the IC50 was < 500 nM.

Turning to `O=S(=O)(Nc1ccc(F)c(-c2ccc3c(-c4ncc[nH]4)n[nH]c3c2F)c1F)c1ccccc1` [Example 2BV, N-(2,4-difluoro-3-(7-fluoro-3-(1H-imidazol-2-yl)-1H-indazol-6-yl)phenyl)benzene-sulfonamide], the IC50 fell in the range of 500 to 2500 nM.

Consider `O=S(=O)(Nc1ccc(F)c(-c2ccc3c(-c4ncc[nH]4)n[nH]c3c2F)c1F)c1cc(Cl)ccc1CO` [Example 2BW, 5-chloro-N-(2,4-difluoro-3-(7-fluoro-3-(1H-imidazol-2-yl)-1H-indazol-6-yl)phenyl)-2-(hydroxyl-methyl)benzene-sulfonamide], for which the IC50 was < 500 nM.

`O=S(=O)(Nc1ccc(F)c(-c2ccc3cn[nH]c3c2)c1F)c1cc(Cl)ccc1Cl` [Example 2BX, 2,5-dichloro-N-(2,4-difluoro-3-(1H-indazol-6-yl)phenyl)benzenesulfonamide] had an IC50 of 500 to 2500 nM.

`COc1ncc(Cl)cc1S(=O)(=O)Nc1ccc(F)c(-c2ccc3cn[nH]c3c2)c1F` [Example 2BY, 5-chloro-N-(2,4-difluoro-3-(1H-indazol-6-yl)-phenyl)-2-methoxypyridine-3-sulfonamide] came in with an IC50 of 500 to 2500 nM.

As to `COc1ncc(Cl)cc1S(=O)(=O)Nc1ccc(F)c(-c2ccc3c(-c4ccn[nH]4)n[nH]c3c2F)c1F` [Example 2BZ, 5-chloro-N-(2,4-difluoro-3-(7-fluoro-3-(1H-pyrazol-5-yl)-1H-indazol-6-yl)phenyl)-2-methoxypyridine-3-sulfonamide], the IC50 is < 500 nM.

Turning to `Cn1cc(S(=O)(=O)Nc2ccc(F)c(-c3ccc4c(-c5ncc[nH]5)n[nH]c4c3F)c2F)cn1` [Example 2C, N-(2,4-difluoro-3-(7-fluoro-3-(1H-imidazol-2-yl)-1H-indazol-6-yl)phenyl)-1-methyl-1H-pyrazole-4-sulfonamide], the half-maximal inhibitory concentration (IC50) was in the range of 2500 to 10000 nM.

On to `COc1ncc(Cl)cc1S(=O)(=O)Nc1ccc(F)c(-c2ccc3c(-c4ncc[nH]4)n[nH]c3c2)n1` [Example 2CA], for which the IC50 was 500 to 2500 nM.

Turning to `COc1ncc(Cl)cc1S(=O)(=O)Nc1ccnc(-c2ccc3c(-c4ncc[nH]4)n[nH]c3c2)c1F` [Example 2CB, N-(2-(3-(1H-imidazol-2-yl)-1H-indazol-6-yl)-3-fluoro-pyridin-4-yl)-5-chloro-2-methoxypyridinc-3-sulfonamide], the IC50 is < 500 nM.

In the case of `Cc1n[nH]c2cc(-c3c(F)ccc(NS(=O)(=O)c4cc(F)ccc4F)c3F)ccc12` [Example 2CC, N-(2,4-difluoro-3-(3-methyl-1H-indazol-6-yl)phenyl)-2,5-difluorobenzenesulfonamide], the IC50 lay in the range of 2500 to 10000 nM.

On to `COc1ncc(Cl)cc1S(=O)(=O)Nc1ccc(F)c(-c2ccc3c(-c4ccccn4)n[nH]c3c2F)c1F` [Example 2CD, 5-chloro-N-(2,4-difluoro-3-(7-fluoro-3-(pyridin-2-yl)-1H-indazol-6-yl)phenyl)-2-methoxypyridine-3-sulfonamide], for which the IC50 was in the range of 500 to 2500 nM.

On to `O=S(=O)(Nc1ccc(F)c(-c2ccc3c(-c4ncc[nH]4)n[nH]c3c2F)c1F)c1cncc(Cl)c1` [Example 2CE], for which the IC50 is < 500 nM.

With `COc1ncc(Cl)cc1S(=O)(=O)Nc1ccc(F)c(-c2ccc3c(C(=O)NCCN(C)C)n[nH]c3c2F)c1F` [Example 2CF, 6-(3-((5-chloro-2-methoxy-pyridine)-3-sulfonamido)-2,6-difluorophenyl)-N-(2-(di-methylamino)ethyl)-7-fluoro-1H-indazole-3-carboxamide], the IC50 is < 500 nM.

For `COc1ncc(Cl)cc1S(=O)(=O)Nc1ccc(F)c(-c2ccc3c(C(=O)NCCCN(C)C)n[nH]c3c2F)c1F` [Example 2CG, 6-(3-((5-chloro-2-methoxy-pyridine)-3-sulfonamido)-2,6-difluorophenyl)-N-(3-(di-methylamino)propyl)-7-fluoro-1H-indazole-3-carboxamide], the IC50 was < 500 nM.

`COc1ncc(Cl)cc1S(=O)(=O)Nc1ccc(F)c(-c2ccc3c(C(=O)NCCO)n[nH]c3c2F)c1F` [Example 2CH, 6-(3-((5-chloro-2-methoxy-pyridine)-3-sulfonamido)-2,6-difluorophenyl)-7-fluoro-N-(2-hydroxyethyl)-1H-indazole-3-carboxamide]: the IC50 is < 500 nM.

Turning to `COc1ncc(Cl)cc1S(=O)(=O)Nc1ccc(F)c(-c2ccc3c(C(=O)NCCCO)n[nH]c3c2F)c1F` [Example 2CI, 6-(3-((5-chloro-2-methoxy-pyridine)-3-sulfonamido)-2,6-difluorophenyl)-7-fluoro-N-(3-hydroxypropyl)-1H-indazole-3-carboxamide], the IC50 is < 500 nM.

Source of the values: patent US20220388964A1 (HiberCell, Inc., priority 2019, published 2022).
